[ ]: non-standard residue; d: D form. NMeF = CN[C@@H](Cc1ccccc1)C(=O)O; NMeA = CN[C@@H](C)C(=O)O
Legend:
[1] = test system: Microcystis aeruginosa strain (MVCC42); assay: Cyanobacteria growth inhibition; settings: colistin 30 μg/mL, positive control; duplicates, 7–10 days
[2] = test system: Lolium multiflorum (Ray grass); assay: Herbicidal activity, germination in agar methodology; type: in vivo; settings: 67 μg/mL in agar; Ryegrass, 12 days; three replicates; Figure S48
[3] = test system: microcystins in Microcystis (MVCC42) cultures; type: cell-based, Microcystis aeruginosa
[4] = test system: Lolium multiflorum (Ray grass); settings: previously reported cyclotetrapeptides; cited from earlier work
[5] = qualitative; cited from earlier work
HepG2 cells = settings: qualitative; cited from earlier work

CCc1cccc(C)c1N(C(=O)CCl)[C@@H](C)COC [Positive control, S-metolachlor]
reduction of chlorophyll a (%) [1]: 99%

NH-MeAla-Leu-D-Phe-β-Ala-OH [compound 29]
leaf development (%) [2]: not active

colistine
inhibition of microcystins concentration (%) [3]: 90%

cyclo(AL[dF]G) [compound 16]
radicle growth inhibition (reported activity) [4]: 41%

cyclo(NMe-Ala-Leu-NMe-Δ^z-Phe-Gly) (head to tail) [Tentoxin]
phytotoxic effect on seedlings [5]: causes seedling chlorosis

cyclo([NMeA]LFG) [compound 17]
radicle growth inhibition (reported activity) [4]: 71%

cyclo([NMeA]L[NMeF]G) [compound 24]
radicle growth inhibition (reported activity) [4]: 81%

versicotide D
cytotoxicity on HepG2 cells (HepG2 cells): low cytotoxicity | phytotoxicity [5]: high phytotoxicity

Source: PMC11079878 (ACS Omega, 2024)
